Where “and” joins values, the source holds several entries; their conditions need not be identical. Identical values can stand only once. Toxic doses and inconclusive results are not listed.

In the assay the test system is L1210 leukemia ip in BDF1 mice, survival T/C. Put plainly: NCI In Vivo Anticancer Drug Screen. Data for tumor model L1210 Leukemia (intraperitoneal) in B6D2F1 (BDF1) mice. The note with it: endpoint: mean survival time, higher = longer survival. The method in brief:
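Antitumor effect is assessed in tumor-bearing animals. Survival in the compound arm is compared with a vehicle-dosed control arm and expressed as their quotient.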

[1] abbreviates: dose: 100.0 mg/kg/injection, schedule: Q01DX001 (ip), vehicle: saline with Tween-80.
Setting [2] is: dose: 200.0 mg/kg/injection, schedule: Q01DX001 (ip), vehicle: saline with Tween-80.
Where [3] appears, read: dose: 100.0 mg/kg/injection, schedule: Q01DX001 (ip), vehicle: Klucel (hydroxypropylcellulose) (HPC).
Setting [4] is: dose: 200.0 mg/kg/injection, schedule: Q01DX001 (ip), vehicle: Klucel (hydroxypropylcellulose) (HPC).
[5] abbreviates: dose: 400.0 mg/kg/injection, schedule: Q01DX001 (ip), vehicle: Klucel (hydroxypropylcellulose) (HPC).
Where [6] appears, read: dose: 25.0 mg/kg/injection, schedule: Q04DX003 (ip), vehicle: other.
[7] abbreviates: dose: 50.0 mg/kg/injection, schedule: Q04DX003 (ip), vehicle: other.
Where [8] appears, read: dose: 100.0 mg/kg/injection, schedule: Q01DX001 (ip), vehicle: saline.
Setting [9] is: dose: 200.0 mg/kg/injection, schedule: Q01DX001 (ip), vehicle: saline.
The mark [10] stands for this setting: dose: 400.0 mg/kg/injection, schedule: Q01DX001 (ip), vehicle: saline.
Where [11] appears, read: dose: 75.0 mg/kg/injection, schedule: Q01DX001 (ip), vehicle: saline.
[12] abbreviates: dose: 150.0 mg/kg/injection, schedule: Q01DX001 (ip), vehicle: saline.
[13] abbreviates: dose: 50.0 mg/kg/injection, schedule: Q04DX003 (ip), vehicle: saline with Tween-80.
Setting [14] is: dose: 100.0 mg/kg/injection, schedule: Q01DX009 (ip), vehicle: saline with Tween-80.
Where [15] appears, read: dose: 100.0 mg/kg/injection, schedule: Q04DX003 (ip), vehicle: saline with Tween-80.
Setting [16] is: dose: 200.0 mg/kg/injection, schedule: Q04DX003 (ip), vehicle: saline with Tween-80.
The mark [17] stands for this setting: dose: 400.0 mg/kg/injection, schedule: Q04DX003 (ip), vehicle: saline with Tween-80.

Turning to `CC1(c2ccccc2)OCCCO1`, the T/C was 100 % of control under setting [1]; 98 % of control under setting [2]; 107 % of control (dose: 400.0 mg/kg/injection, schedule: Q01DX001 (ip), vehicle: saline with Tween-80).
On to `Cc1cc(Cl)c(Cl)cc1NC(=O)c1cccc([N+](=O)[O-])c1`, for which the T/C is 93 % of control (dose: 100.0 mg/kg/injection, schedule: Q01DX009 (ip), vehicle: Klucel (hydroxypropylcellulose) (HPC)); 96 % of control (dose: 200.0 mg/kg/injection, schedule: Q01DX009 (ip), vehicle: Klucel (hydroxypropylcellulose) (HPC)); 100 % of control (dose: 400.0 mg/kg/injection, schedule: Q01DX009 (ip), vehicle: Klucel (hydroxypropylcellulose) (HPC)).
In the case of `CCCCCCCCCCCCSCCCCSCCCCCCCCCCCC`, the T/C is, setting by setting: under setting [3], 93 % of control; under setting [4], 89 % of control; under setting [5], 91 % of control.
As to `O=[N+]([O-])c1ccc(N=NNc2ccc(N=Nc3ccccc3)cc2)cc1`, the T/C is, setting by setting: (dose: 25.0 mg/kg/injection, schedule: Q01DX009 (ip), vehicle: Klucel (hydroxypropylcellulose) (HPC)) 91 % of control; under setting [6], 89 % of control; (dose: 50.0 mg/kg/injection, schedule: Q01DX009 (ip), vehicle: Klucel (hydroxypropylcellulose) (HPC)) 102 % of control; under setting [7], 95 % of control; (dose: 100.0 mg/kg/injection, schedule: Q04DX003 (ip), vehicle: other) 92 % of control.
In the case of `Cc1ccccc1N=P(c1ccccc1)(c1ccccc1)c1ccccc1`, the T/C reads like this: (dose: 100.0 mg/kg/injection, schedule: Q01DX009 (ip), vehicle: gum acacia) 100 % of control; (dose: 100.0 mg/kg/injection, schedule: Q04DX003 (ip), vehicle: gum acacia) 93 % of control; (dose: 200.0 mg/kg/injection, schedule: Q01DX009 (ip), vehicle: gum acacia) 102 % of control; (dose: 200.0 mg/kg/injection, schedule: Q04DX003 (ip), vehicle: gum acacia) 90 % of control; (dose: 400.0 mg/kg/injection, schedule: Q04DX003 (ip), vehicle: gum acacia) 93 % of control.
Consider `O=C(C=C(C(F)(F)F)C(F)(F)F)c1ccc(Br)cc1`, for which the T/C runs as follows: under setting [6], 88 % of control; under setting [7], 94 % of control.
Consider `CCOC(=O)C(O)(C(=O)OCC)c1ccccc1`, for which the T/C is 97 % of control (dose: 100.0 mg/kg/injection, schedule: Q01DX001 (ip), vehicle: other); 102 % of control (dose: 200.0 mg/kg/injection, schedule: Q01DX001 (ip), vehicle: other); 103 % of control (dose: 400.0 mg/kg/injection, schedule: Q01DX001 (ip), vehicle: other).
`C[N-]C.C[N-]C.[Cl][Pt+2][Cl]`: the T/C runs as follows: under setting [8], 113 % of control; (dose: 100.0 mg/kg/injection, schedule: Q01DX009 (ip), vehicle: saline) 100 % of control; under setting [9], 107 % of control; (dose: 200.0 mg/kg/injection, schedule: Q01DX009 (ip), vehicle: saline) 88 % of control; under setting [10], 119 % of control.
Take `COC(CSc1ncc2cnccn12)OC`: the T/C is 102 % of control (dose: 100.0 mg/kg/injection, schedule: Q01DX009 (ip), vehicle: water); 103 % of control (dose: 100.0 mg/kg/injection, schedule: Q04DX003 (ip), vehicle: water); 100 % of control (dose: 200.0 mg/kg/injection, schedule: Q01DX009 (ip), vehicle: water); 106 % of control (dose: 200.0 mg/kg/injection, schedule: Q04DX003 (ip), vehicle: water); 100 % of control (dose: 400.0 mg/kg/injection, schedule: Q01DX009 (ip), vehicle: water); 108 % of control (dose: 400.0 mg/kg/injection, schedule: Q04DX003 (ip), vehicle: water).
Take `CCOC(=O)NC(CI)(c1ccccc1)c1ccccc1`: the T/C under setting [11] is 98 % of control; the T/C under setting [12] was 97 % of control; the T/C (dose: 300.0 mg/kg/injection, schedule: Q01DX001 (ip), vehicle: saline) is 92 % of control.
Take `CC(Oc1ccccc1)C(=O)NC(=S)Nc1ccc(Cl)cc1` (stereo unspecified): the T/C (dose: 50.0 mg/kg/injection, schedule: Q01DX001 (ip), vehicle: saline with Tween-80) was 97 % of control; the T/C (dose: 50.0 mg/kg/injection, schedule: Q01DX009 (ip), vehicle: saline with Tween-80) was 97 % of control and 98 % of control and 92 % of control; the T/C under setting [13] was 98 % of control; the T/C under setting [1] is 97 % of control; the T/C under setting [14] was 97 % of control and 98 % of control and 101 % of control; the T/C under setting [15] was 97 % of control. In addition, the T/C is 92 % of control under setting [2] and 109 % of control under setting [16].
For the compound `C(=N\Nc1nn[nH]n1)/c1ccccc1`, the T/C is, setting by setting: under setting [14], 202 % of control; under setting [15], 95 % of control; under setting [16], 97 % of control; under setting [17], 103 % of control.
With `CC1=CC(=O)C=CC1(C)C(Cl)Cl` (stereo unspecified), the T/C reads like this: under setting [15], 107 % of control; under setting [16], 100 % of control; under setting [17], 97 % of control.
`CCOC(=O)C(=Cc1ccccc1OC)C(=O)OCC`: the T/C under setting [3] was 100 % of control; the T/C (dose: 100.0 mg/kg/injection, schedule: Q04DX003 (ip), vehicle: Klucel (hydroxypropylcellulose) (HPC)) is 94 % of control; the T/C under setting [4] is 111 % of control; the T/C (dose: 200.0 mg/kg/injection, schedule: Q04DX003 (ip), vehicle: Klucel (hydroxypropylcellulose) (HPC)) was 100 % of control; the T/C under setting [5] is 111 % of control; the T/C (dose: 400.0 mg/kg/injection, schedule: Q04DX003 (ip), vehicle: Klucel (hydroxypropylcellulose) (HPC)) is 92 % of control.
In the case of `Clc1ccc([S][Pb]([c]2ccccc2)([c]2ccccc2)[c]2ccccc2)cc1`, the T/C (dose: 100.0 mg/kg/injection, schedule: Q04DX002 (ip), vehicle: gum acacia) is 88 % of control and the T/C (dose: 200.0 mg/kg/injection, schedule: Q04DX002 (ip), vehicle: gum acacia) is 91 % of control.
On to `O=C(Nc1ccn(C2OC(CO)C(O)C2O)c(=O)n1)c1ccccc1` (stereo unspecified), for which the T/C under setting [8] is 97 % of control, the T/C under setting [9] was 97 % of control and the T/C under setting [10] is 86 % of control.
For `Cc1cccc(C)c1N(N=O)C(=O)c1ccccc1`, the T/C by setting is: under setting [11], 98 % of control; under setting [12], 98 % of control.
With `CN(Cc1ccccc1)C(=O)C(c1ccccc1)c1ccccc1`, the T/C is 89 % of control (dose: 100.0 mg/kg/injection, schedule: Q04DX002 (ip), vehicle: Klucel (hydroxypropylcellulose) (HPC)); 86 % of control (dose: 200.0 mg/kg/injection, schedule: Q04DX002 (ip), vehicle: Klucel (hydroxypropylcellulose) (HPC)); 96 % of control (dose: 400.0 mg/kg/injection, schedule: Q04DX002 (ip), vehicle: Klucel (hydroxypropylcellulose) (HPC)).
Consider `CC(=O)Oc1ccc2c(c1)C(=O)CCCCCC(=O)O2`, for which the T/C is 95 % of control under setting [13] and 117 % of control under setting [16].
